Source: patent US11840686B2, “Modulation of prekallikrein (PKK) expression” (Ionis Pharmaceuticals, Inc., priority 2013, dated 2023)
Strand notation (5' to 3'): a small letter for the sugar, then the base; units joined by * are phosphorothioate-linked, units joined directly phosphodiester-linked; [ ] holds rarer units or linkages, { } end groups; capitals alone tell only the bases. e = 2'-O-(2-methoxyethyl) (MOE); [5mC] = 5-methylcytosine; d = 2'-deoxy (DNA)

Tested on: human PKK mRNA
Assay: Antisense inhibition of human PKK mRNA in HepaRG cells, 3,000 nM (Example 1)
Type: cell-based
Details: relative to untreated control cells
Summary of the method: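 HepaRG cells, 20,000 per well, were electroporated with 3,000 nM 5-10-5 MOE gapmer (phosphorothioate, 5-methylcytosine). After about 24 h, PKK mRNA was measured by qRT-PCR with primer probe set RTS3454 and normalised to RIBOGREEN total RNA. Values are percent inhibition versus untreated cells.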

[1] = Table 2, PKK mRNA, HepaRG cells, 3,000 nM, electroporation, ~24 h
[2] = Table 3, HepaRG cells, electroporation with 3,000 nM antisense oligonucleotide, approx. 24 hours, PKK mRNA by RT-PCR (RTS3454)
[3] = Table 4, HepaRG cells, electroporation with 3,000 nM antisense oligonucleotide, approx. 24 hours, PKK mRNA by RT-PCR (RTS3454)
[4] = Table 1, PKK mRNA, HepaRG cells, 3,000 nM, electroporation, ~24 h

531066 (eA*eG*e[5mC]*eG*eA*d[5mC]*dT*dT*dT*dG*dG*dT*dG*dT*dA*eG*eA*e[5mC]*eA*e[5mC]; antisense) [compound 531066]
% inhibition [1]: 67%

531151 (antisense eT*e[5mC]*eA*e[5mC]*e[5mC]*dA*d[5mC]*d[5mC]*dA*dT*dT*dT*dT*dT*d[5mC]*eA*e[5mC]*eA*eT*eG) [compound 531151]
% inhibition [2]: 44%

531084 (eA*eT*eA*eG*eG*dG*dA*d[5mC]*dA*d[5mC]*dA*dA*d[5mC]*d[5mC]*dA*eA*eG*eG*eA*eA; antisense) [compound 531084]
% inhibition [2]: 25%

531087 (e[5mC]*e[5mC]*eA*eG*eG*dT*dG*dT*dG*dG*dA*d[5mC]*dA*dG*d[5mC]*eA*eG*e[5mC]*eT*eG; antisense) [compound 531087]
% inhibition [2]: 52%

531216 (eA*eA*eA*e[5mC]*eA*d[5mC]*dA*dG*dG*dA*dA*dT*dT*dT*dG*e[5mC]*eA*eG*eA*e[5mC]; antisense) [compound 531216]
% inhibition [3]: 33%

531094 (eG*eA*eA*eT*eG*dT*d[5mC]*dA*dG*dG*d[5mC]*d[5mC]*dT*d[5mC]*dT*eG*eG*eG*e[5mC]*e[5mC]; antisense) [compound 531094]
% inhibition [2]: 48%

530979 (antisense eG*eG*eT*eT*eA*dA*dA*dA*dG*dG*d[5mC]*dT*dA*dT*dA*eT*e[5mC]*e[5mC]*eA*eG) [compound 530979]
% inhibition [4]: 35%

530999 (e[5mC]*eA*eG*eT*e[5mC]*dT*dT*d[5mC]*dT*dG*dG*dG*dA*dG*dT*eA*eA*eA*eG*eA; antisense) [compound 530999]
% inhibition [4]: 31%

531209 (eT*eG*eG*eA*eT*dT*d[5mC]*dA*dT*dT*dT*dT*d[5mC]*dT*dG*e[5mC]*eA*eA*eA*eT; antisense) [compound 531209]
% inhibition [3]: 81%

531103 (eA*e[5mC]*eT*e[5mC]*eA*dT*dT*dG*d[5mC]*d[5mC]*dT*dT*dA*dA*d[5mC]*eT*e[5mC]*eA*eG*eG; antisense) [compound 531103]
% inhibition [2]: 40%

531047 (antisense eA*eT*e[5mC]*eT*eT*dG*dA*dT*dA*dT*d[5mC]*dT*dT*dT*dT*e[5mC]*eT*eG*eG*e[5mC]) [compound 531047]
% inhibition [1]: 68%

530930 (antisense eA*eA*eA*eT*eG*dA*dA*d[5mC]*dG*dG*dT*d[5mC]*dT*dT*d[5mC]*eA*eA*eG*e[5mC]*eT) [compound 530930]
% inhibition [4]: 17%

531101 (eA*eT*eG*eT*eA*dA*dG*dT*dT*dA*d[5mC]*dA*dA*dG*d[5mC]*e[5mC]*eA*e[5mC]*eT*eA; antisense) [compound 531101]
% inhibition [2]: 37%

531124 (antisense eG*eT*eA*e[5mC]*eT*dA*dA*dA*d[5mC]*dA*dT*d[5mC]*d[5mC]*dT*dA*eA*eG*eT*eG*eA) [compound 531124]
% inhibition [2]: 2%

531160 (antisense eT*eG*eA*eT*eA*dT*d[5mC]*dA*dT*d[5mC]*dA*dT*d[5mC]*d[5mC]*d[5mC]*eA*eA*eT*eG*eA) [compound 531160]
% inhibition [2]: 13%

530978 (antisense e[5mC]*eT*eA*eT*eA*dT*d[5mC]*d[5mC]*dA*dG*dA*dT*dA*dT*dG*eG*eT*eG*eT*eT) [compound 530978]
% inhibition [4]: 0%

531080 (e[5mC]*eA*eT*eT*eG*dT*d[5mC]*d[5mC]*dT*d[5mC]*dA*dG*d[5mC]*dA*dG*e[5mC]*eT*e[5mC]*eT*eG; antisense) [compound 531080]
% inhibition [1]: 55%

531000 (eA*eA*eG*eA*eA*dA*d[5mC]*dA*d[5mC]*dT*dT*dA*d[5mC]*dA*d[5mC]*eT*eT*e[5mC]*eT*e[5mC]; antisense) [compound 531000]
% inhibition [4]: 1%

531207 (e[5mC]*e[5mC]*eA*e[5mC]*eT*dT*dA*dT*dT*dT*dG*dA*dT*dG*dA*e[5mC]*e[5mC]*eA*e[5mC]*eA; antisense) [compound 531207]
% inhibition [3]: 64%

30929 (antisense eA*eA*e[5mC]*eG*eG*dT*d[5mC]*dT*dT*d[5mC]*dA*dA*dG*d[5mC]*dT*eG*eT*eT*e[5mC]*eT) [compound 30929]
% inhibition [4]: 59%

531159 (antisense eA*eT*eT*eT*eG*dT*dT*dA*dA*dA*dA*dG*dT*dT*dG*e[5mC]*eT*eT*eA*eT) [compound 531159]
% inhibition [2]: 0%

531032 (antisense eT*eG*eG*eT*eT*dT*dT*dT*dG*dG*dA*dA*dT*dT*d[5mC]*eA*eG*eT*eG*eT) [compound 531032]
% inhibition [1]: 67%

531067 (eT*eA*e[5mC]*eT*e[5mC]*dA*dG*d[5mC]*dG*dA*d[5mC]*dT*dT*dT*dG*eG*eT*eG*eT*eA; antisense) [compound 531067]
% inhibition [1]: 31%

531068 (e[5mC]*e[5mC]*eA*eT*eG*dT*dA*d[5mC]*dT*d[5mC]*dA*dG*d[5mC]*dG*dA*e[5mC]*eT*eT*eT*eG; antisense) [compound 531068]
% inhibition [1]: 59%

531075 (e[5mC]*e[5mC]*eA*eT*eG*d[5mC]*dT*dT*dT*dG*d[5mC]*dA*dG*dA*dT*eG*eA*eG*eG*eA; antisense) [compound 531075]
% inhibition [1]: 64%

531230 (e[5mC]*eT*eT*eA*e[5mC]*dT*dG*dG*dG*d[5mC]*dT*dA*dA*dA*dA*eT*e[5mC]*eA*eA*eG; antisense) [compound 531230]
% inhibition [3]: 46%

531027 (antisense eA*eA*eA*eG*eG*dA*dG*d[5mC]*d[5mC]*dT*dG*dG*dA*dG*dT*eT*eT*eT*eA*eT) [compound 531027]
% inhibition [1]: 0%

531106 (antisense eA*eA*eG*eA*eT*d[5mC]*dT*dA*dG*dA*dT*dA*dA*dT*dT*e[5mC]*eT*eT*eG*eT) [compound 531106]
% inhibition [2]: 31%

531006 (eG*e[5mC]*eT*eT*eG*dT*dT*dT*dT*dT*dG*dT*dT*dG*dT*eG*e[5mC]*eA*eG*eA; antisense) [compound 531006]
% inhibition [4]: 49%

531001 (eA*eG*eA*eT*eA*dA*dT*d[5mC]*dT*dT*dA*dA*dG*dA*dA*eA*e[5mC]*eA*e[5mC]*eT; antisense) [compound 531001]
% inhibition [4]: 44%

531128 (antisense eA*eA*eG*eT*eT*d[5mC]*d[5mC]*dA*d[5mC]*d[5mC]*dT*dT*d[5mC]*dT*dA*eA*e[5mC]*eT*eG*eG) [compound 531128]
% inhibition [2]: 18%

531122 (antisense eT*eA*eA*e[5mC]*eA*dA*dA*dA*dA*dT*dG*d[5mC]*d[5mC]*dT*dT*eG*eT*eG*e[5mC]*e[5mC]) [compound 531122]
% inhibition [2]: 33%

531012 (eT*e[5mC]*eT*e[5mC]*e[5mC]*d[5mC]*d[5mC]*dA*dA*dG*dA*dA*dG*dA*dG*eT*eT*eT*eG*eT; antisense) [compound 531012]
% inhibition [1]: 48%

530948 (antisense eA*e[5mC]*eA*eT*eG*dG*dA*dA*dG*d[5mC]*dT*dA*d[5mC]*dA*dT*e[5mC]*e[5mC]*e[5mC]*e[5mC]*eA) [compound 530948]
% inhibition [4]: 35%

531095 (e[5mC]*eT*eA*eA*e[5mC]*dA*dA*d[5mC]*d[5mC]*d[5mC]*d[5mC]*dA*d[5mC]*dA*dA*eT*eA*eT*e[5mC]*eA; antisense) [compound 531095]
% inhibition [2]: 20%

530939 (antisense eA*eA*e[5mC]*eA*eA*dG*dG*dA*dA*dA*dT*dG*dA*dA*dA*eT*eA*eA*eG*eT) [compound 530939]
% inhibition [4]: 0%

531041 (antisense eA*eA*eA*eG*eG*dA*dA*dT*dA*dT*dT*dT*dA*d[5mC]*d[5mC]*eT*eT*eT*eT*eG) [compound 531041]
% inhibition [1]: 68%

531140 (antisense eT*e[5mC]*eT*eT*e[5mC]*d[5mC]*dA*dG*dG*d[5mC]*d[5mC]*dA*dA*d[5mC]*d[5mC]*eA*e[5mC]*e[5mC]*eT*eT) [compound 531140]
% inhibition [2]: 22%

531138 (antisense eT*eT*eT*eA*eA*dA*dT*dG*dT*dG*dT*d[5mC]*dA*d[5mC]*dT*eT*eA*eA*eT*e[5mC]) [compound 531138]
% inhibition [2]: 0%
